Source: patent US10174006B2, “Topical aqueous ophthalmic compositions containing a 1H-indole-1-carboxamide derivative and use thereof for treatment of ophthalmic disease” (Novartis AG, priority 2013, dated 2019)
In brackets after ≈: the same amount, converted by molar mass. Where two headings read alike, the source gives them in different places.

Key:
[1] = Ocular tissue and plasma PK after single unilateral topical dose; assay type: in vivo, pigmented NZW×NZR rabbits; conditions: pigmented NZW×NZR, rabbit, single unilateral 30 μL dose at 0.5%, 1% and 2%
Experimental: A single unilateral dose (30 μL) of a preferred ophthalmic suspension composition (i.e., suspension C-2 in Example 3 below) of the present invention was dosed onto the right (OD) eye of pigmented NZW×NZR rabbits at 0.5%, 1%, and 2% N-(1-methyl-5-(trifluoromethyl)-1H-pyrazol-3-yl)-5-((6-((methylamino)methyl)pyrimidin-4-yl)oxy)-1H-indole-1-carboxamide.

[2] = Equilibrium solubility in HPβCD or HPγCD in acetate (first Table I); assay type: physicochemical; conditions: for solubility at 3 day: thermodynamic from solid, read-out: 1H-indole-1-carboxamide Solubility
Description: Hydroxypropyl-γ-cyclodextrin is preferred for dissolution of the 1H-indole-1-carboxamide.

[3] = Ocular tissue and plasma PK after repeated t.i.d. monocular dosing for 7 days; assay type: in vivo, pigmented rabbits; conditions: 2% t.i.d. 7 days
Experimental: In the contralateral undosed eyes of the 2% t.i.d treatment group, N-(1-methyl-5-(trifluoromethyl)-1H-pyrazol-3-yl)-5-((6-((methylamino)methyl)pyrimidin-4-yl)oxy)-1H-indole-1-carboxamide exposure was lower with the AUClast values of 1260 ng*h/g in cornea, 293000 ng*h/g in RPE/choroid and 3640 ng*h/g in retina.
PK parameters of 1H-indole-1-carboxamide in ocular tissues and plasma following repeated t.i.d. monocular OD dosing for 7 days of 2% N-(1-methyl-5-(trifluoromethyl)-1H-pyrazol-3-yl)-5-((6-((methylamino)methyl)pyrimidin-4-yl)oxy)-1H-indole-1-carboxamide formulation in pigmented rabbits employing suspension C-2 in Table B below.

[4] = Solubility in 5% HP-β-CD at pH 4.5 versus pH 7 (Table II); assay type: physicochemical; conditions: for Solubility Enhancement (fold): compared to intrinsic solubility at pH 7
Description: Thus, depending upon the type of composition, the desired pH of the composition may be different. For compositions that include the cyclodextrin derivative, particularly the β-cyclodextrin derivative, γ-cyclodextrin derivative or combination thereof, and even more typically hydroxypropy-β-cyclodextrin, hydroxypropyl-γ-cyclodextrin or a combination thereof, the pH is preferably relatively low. The relatively low pH is typically at least 3.0, more typically at least 4.0 and even more typically at least 4.3, but is typically no greater than 5.5, more typically no greater than 5.0 and even more typically no greater than 4.7. It is also preferable that the pH of the composition be at least 4.0 but no greater than 5.0 and more preferably at least 4.3 but no greater than 4.7. Such compositions will typically be solutions in which the 1H-indole-1-carboxamide is dissolved.

[5] = Solubility in 8% HP-γ-CD in acetate buffer with different pH adjustment agents (Table III); assay type: physicochemical
[6] = Equilibrium solubility in HPβCD or HPγCD in acetate (first Table I); assay type: physicochemical; conditions: for solubility at 3 day: thermodynamic from solid, read-out: 1H-indole-1-carboxamide Solubility; remark: listed apart in the source
[7] = Zeta potential of LHA510 particles with additives; assay type: physicochemical; conditions: dispersant deionized water
Experimental: It was determined that NaCMC unexpectedly provide the 1H-indole-1-carboxamide with desired Zeta Potential. In particular, NaCMC creates repulsive forces between the particles of 1H-indole-1-carboxamide.

[8] = NZW×NZR (pigmented), rabbit, RPE/choroid of the dosed eye (OD), topical or ocular, 2 % formulation, RPE/Choroid OD (dosed eye)
[9] = NZW×NZR (pigmented), rabbit, cornea of the dosed (OD) eye, topical or ocular, Cornea OD (dosed eye)
[10] = NZW×NZR (pigmented), rabbit, cornea of the undosed (OS) eye, topical or ocular, Cornea OS (undosed eye)
[11] = pigmented NZW×NZR, rabbit, RPE/choroid of the undosed (OS) eye, topical or ocular, RPE/Choroid OS (undosed eye)
[12] = pigmented NZW×NZR, rabbit, retina of the dosed (OD) eye, topical or ocular, Retina OD (dosed eye)
[13] = pigmented NZW×NZR, rabbit, retina of the undosed (OS) eye, topical or ocular, Retina OS (undosed eye)

## CNCc1cc(Oc2ccc3c(ccn3C(=O)Nc3cc(C(F)(F)F)n(C)n3)c2)ncn1 [LHA510, N-(1-methyl-5-(trifluoromethyl)-1H-pyrazol-3-yl)-5-((6-((methylamino)methyl)pyrimidin-4-yl)oxy)-1H-indole-1-carboxamide]
[1]; RPE/choroid
  Tmax: 18 to 48 h
[1]; all ocular tissues and plasma except RPE/choroid
  Tmax: 0.5 to 3 h
[2]; 1% HPγCD in Acetate, pH 4.607, equilibrium solubility at day 3
  1H-indole-1-carboxamide Solubility: 9.09 mg/mL
[2]; 2.5% HPγCD in Acetate, pH 4.555, equilibrium solubility at day 3
  1H-indole-1-carboxamide Solubility: 14.69 mg/mL
[2]; 2.5% HPγCD in acetate, pH 4.555, aqueous with cosolvent or surfactant or cyclodextrin, 2.5% HPγCD in Acetate, pH 4.555, equilibrium solubility at day 3
  solubility at 3 day: 14.7 mg/mL (≈ 33.1 mM)
[2]; 5% HPγCD in Acetate, pH 4.505, equilibrium solubility at day 3
  1H-indole-1-carboxamide Solubility: 22.34 mg/mL
[2]; 5% HPγCD in acetate, pH 4.505, aqueous with cosolvent or surfactant or cyclodextrin, 5% HPγCD in Acetate, pH 4.505, equilibrium solubility at day 3
  solubility at 3 day: 21.9 mg/mL (≈ 49.1 mM)
[2]; 8% HPγCD in Acetate, pH 4.580, equilibrium solubility at day 3
  1H-indole-1-carboxamide Solubility: 30.60 mg/mL
[2]; 10% HPγCD in acetate, pH 4.668, aqueous with cosolvent or surfactant or cyclodextrin, 10% HPγCD in Acetate, pH 4.668, equilibrium solubility at day 3
  solubility at 3 day: 34.3 mg/mL (≈ 77 mM)
[3]
  plasma accumulation: no evidence of plasma accumulation
[3]; Cornea OD (dosed eye), Tlast = 96 h
  AUClast Mean: 317000 ng·h/g
[3]; Cornea OS (undosed eye), Tlast = 96 h
  AUClast Mean: 1260 ng·h/g
[3]; [8]
  Cmax: 6410 ng/g
  Tmax: 0.5 h
[3]; [9]
  Cmax: 32300 ng/g
  Tmax: 1 h
[3]; [10]
  Cmax: 47.5 ng/g
  Tmax: 0 h
[3]; NZW×NZR (pigmented), rabbit, topical or ocular, Plasma
  Tmax: 0.5 h
[3]; NZW×NZR (pigmented), rabbit, topical, Plasma
  Cmax: 1.85 ng/mL
[3]; NZW×NZR (pigmented), rabbit, topical, Plasma, Tlast = 96 h, read-out: AUClast Mean
  AUC(0-t): 5.12 ng·h/mL
[3]; RPE/Choroid OD (dosed eye), Tlast = 96 h
  AUClast Mean: 453000 ng·h/g
[3]; RPE/Choroid OS (undosed eye), Tlast = 96 h
  AUClast Mean: 293000 ng·h/g
[3]; RPE/choroid
  local penetration in the dosed eyes as share of the total AUClast: 37.1%
[3]; Retina OD (dosed eye), Tlast = 96 h
  AUClast Mean: 8400 ng·h/g
[3]; Retina OS (undosed eye), Tlast = 96 h
  AUClast Mean: 3640 ng·h/g
[3]; [11]
  Cmax: 3950 ng/g
  Tmax: 18 h
[3]; [12]
  Cmax: 122 ng/g
  Tmax: 18 h
[3]; [13]
  Cmax: 67.2 ng/g
  Tmax: 18 h
[3]; retina
  local penetration in the dosed eyes as share of the total AUClast: 56.7%
[4]; 5% HP-β-CD in acetate buffer, aqueous with cosolvent or surfactant or cyclodextrin, 5% HP-β-CD/Acetate buffer/pH 4.5, final pH 4.64, read-out: 1H-indole-1-carboxamide Solubility
  solubility: 11.7 mg/mL
[4]; 5% HP-β-CD in phosphate buffer, aqueous with cosolvent or surfactant or cyclodextrin, 5% HP-β-CD/Phosphate buffer/pH 7, final pH 7.06, read-out: 1H-indole-1-carboxamide Solubility
  solubility: 1.01 mg/mL
[4]; 5% HP-β-CD/Acetate buffer/pH 4.5
  Solubility Enhancement (fold): 1667 fold
[4]; 5% HP-β-CD/Phosphate buffer/pH 7
  Solubility Enhancement (fold): 144 fold
[4]; pH 7, aqueous buffer, read-out: intrinsic solubility
  solubility: ~0.007 mg/mL
[5]; pH 4.732, aqueous with cosolvent or surfactant or cyclodextrin, pH adjustment agent 1N Glucoronic acid, final pH 4.732, read-out: 1H-indole-1-carboxamide Solubility
  solubility: 36 mg/mL (≈ 80.8 mM)
[5]; pH 4.872, aqueous with cosolvent or surfactant or cyclodextrin, pH adjustment agent 1N Citric acid, final pH 4.872, read-out: 1H-indole-1-carboxamide Solubility
  solubility: 6.88 mg/mL (≈ 15.4 mM)
[5]; pH 4.887, aqueous with cosolvent or surfactant or cyclodextrin, pH adjustment agent 1N Acetic acid, final pH 4.887, read-out: 1H-indole-1-carboxamide Solubility
  solubility: 30.3 mg/mL (≈ 68 mM)
[5]; pH 4.887, aqueous with cosolvent or surfactant or cyclodextrin, pH adjustment agent 1N Hydrochloric acid, final pH 4.887, read-out: 1H-indole-1-carboxamide Solubility
  solubility: 15.5 mg/mL (≈ 34.7 mM)
[5]; pH 4.902, aqueous with cosolvent or surfactant or cyclodextrin, pH adjustment agent 1N Methanesulfonic acid, final pH 4.902, read-out: 1H-indole-1-carboxamide Solubility
  solubility: 32.6 mg/mL (≈ 73.1 mM)
[5]; pH 4.955, aqueous with cosolvent or surfactant or cyclodextrin, pH adjustment agent 1N Lactic acid, final pH 4.955, read-out: 1H-indole-1-carboxamide Solubility
  solubility: 33 mg/mL (≈ 74.2 mM)
[5]; pH 4.973, aqueous with cosolvent or surfactant or cyclodextrin, pH adjustment agent 1N Sulfuric acid, final pH 4.973, read-out: 1H-indole-1-carboxamide Solubility
  solubility: 35.6 mg/mL (≈ 79.9 mM)
[5]; pH 5.014, aqueous with cosolvent or surfactant or cyclodextrin, pH adjustment agent 1N Phosphoric acid, final pH 5.014, read-out: 1H-indole-1-carboxamide Solubility
  solubility: 25.4 mg/mL (≈ 57.1 mM)
[6]; 1% HPβCD in Acetate, pH 4.584, equilibrium solubility at day 3
  1H-indole-1-carboxamide Solubility: 7.28 mg/mL
[6]; 1% HPβCD in acetate, pH 4.584, aqueous with cosolvent or surfactant or cyclodextrin, 1% HPβCD in Acetate, pH 4.584, equilibrium solubility at day 3
  solubility at 3 day: 7.5 mg/mL (≈ 16.8 mM)
[6]; 1% HPγCD in acetate, pH 4.607, aqueous with cosolvent or surfactant or cyclodextrin, 1% HPγCD in Acetate, pH 4.607, equilibrium solubility at day 3
  solubility at 3 day: 9.28 mg/mL (≈ 20.8 mM)
[6]; 2.5% HPβCD in Acetate, pH 4.606, equilibrium solubility at day 3
  1H-indole-1-carboxamide Solubility: 12.45 mg/mL
[6]; 2.5% HPβCD in acetate, pH 4.606, aqueous with cosolvent or surfactant or cyclodextrin, 2.5% HPβCD in Acetate, pH 4.606, equilibrium solubility at day 3
  solubility at 3 day: 12.5 mg/mL (≈ 28 mM)
[6]; 5% HPβCD in Acetate, pH 4.670, equilibrium solubility at day 3
  1H-indole-1-carboxamide Solubility: 15.93 mg/mL
[6]; 5% HPβCD in acetate, pH 4.67, aqueous with cosolvent or surfactant or cyclodextrin, 5% HPβCD in Acetate, pH 4.670, equilibrium solubility at day 3
  solubility at 3 day: 19.6 mg/mL (≈ 44 mM)
[6]; 8% HPβCD in Acetate, pH 4.530, equilibrium solubility at day 3
  1H-indole-1-carboxamide Solubility: 25.67 mg/mL
[6]; 8% HPβCD in acetate, pH 4.53, aqueous with cosolvent or surfactant or cyclodextrin, 8% HPβCD in Acetate, pH 4.530, equilibrium solubility at day 3
  solubility at 3 day: 25.7 mg/mL (≈ 57.6 mM)
[6]; 8% HPγCD in acetate, pH 4.58, aqueous with cosolvent or surfactant or cyclodextrin, 8% HPγCD in Acetate, pH 4.580, equilibrium solubility at day 3
  solubility at 3 day: 30.7 mg/mL (≈ 68.8 mM)
[6]; 10% HPβCD in Acetate, pH 4.610, equilibrium solubility at day 3
  1H-indole-1-carboxamide Solubility: 30.57 mg/mL
[6]; 10% HPβCD in acetate, pH 4.61, aqueous with cosolvent or surfactant or cyclodextrin, 10% HPβCD in Acetate, pH 4.610, equilibrium solubility at day 3
  solubility at 3 day: 30.6 mg/mL (≈ 68.7 mM)
[6]; 10% HPγCD in Acetate, pH 4.668, equilibrium solubility at day 3
  1H-indole-1-carboxamide Solubility: 34.56 mg/mL
[7]; Additive: 10 mM NaCl
  Zeta Potential: 0.6 mV
[7]; Additive: 0.1% Pluronic F127
  Zeta Potential: −1.09 mV
[7]; Additive: 0.5% Sodium CMC 7LF PH
  Zeta Potential: −40.3 mV
[7]; Additive: 1% Pluronic F127
  Zeta Potential: −0.962 mV
[7]; Additive: 1% Polyvinyl phosphoric acid (PVPA)
  Zeta Potential: −0.835 mV
[7]; Additive: 1% Povidone (PVP 29/32)
  Zeta Potential: 0 mV
[7]; Additive: 1% Sodium CMC 7LF PH
  Zeta Potential: −47.8 mV
[7]; Additive: 1% Vitamin E TPGS
  Zeta Potential: −1.77 mV
[7]; Additive: None
  Zeta Potential: −2.58 mV
